Experimental data published in patent US20060276970A1, “Apparatus and method for the ozone preservation of crops” (Biofresh Limited, priority 2003, published 2006).

Key:
Botrytis cinerea [1] = assay: Grey mould lesion development on wound-inoculated tomato fruit in ozone-enriched air; assay type: in vivo; details: 50 ppb ozone, even for 2-8 h, 13° C., 95% RH
From the text: Fruit were wound-inoculated with a mycelial plug containing the pathogen^2 at day 0, transferred to charcoal-filtered air (CFA) or an ozone enriched CFA environment and then removed at intervals to 'clean air'. ^1 Monitored using duplicate photometric analysers calibrated to US-EPA standards ^2 plugs (2.5 mm diameter) were removed from the advancing margins of 3-day-old B. cinerea cultures (4-5-day-old in the case of A. alternaria) and inserted into a superficial wound made in the surface of the fruit (two wound-inoculations per fruit) FIG. 1. Experimental design: Fruit maintained in 'clean air' (CFA, →) or ozone (50 ppb or 200 ppb (→) and then inoculated (↓) with an agar plug containing the pathogen. Exposure to ozone performed in the dark at 13° C. and 95%. FIG. 2. Impacts of ozone-enrichment on the development of grey mould (Botrytis cinerea) on tomato (Lycopersicon esculentum […]) fruit wound-inoculated with a mycelial plug (Lycopersicon esculentum […]). Fruit were maintained in controlled environment chambers at 13° C. and 95% RH ventilated with charcoal-filtered 'clean' air (CFA, □) or CFA plus a trace level of ozone (50 ppb, ●). For experimental design see FIG. 1. Values represent mean (±SE) for 3-4 replicate fruit. Experiments repeated several times.

Alternaria alternata [2] = assay: Black spot development on wound-inoculated tomato fruit in ozone-enriched air; assay type: in vivo; details: 50 ppb ozone, even for 2-8 h
Protocol: The development of black spot (Alternaria alternata) was suppressed by more than 50% in fruit maintained in an atmosphere containing a trace level of ozone (50 ppb)—even for a relatively short period of time (2-8 h). Fruit were inoculated with a mycelial plug containing the pathogen and the experiment was performed according to design B (FIG. 1).
FIG. 3. Impacts of ozone-enrichment on the development of black spot (Alternaria alternata) raised on tomato fruit (Lycopersicon esculentum L. cv. Mareta) wound-inoculated with an agar plug containing mycelia of the pathogen. Fruit were maintained in controlled environment chambers at 13° C. and 95% RFL Chambers were ventilated with ‘clean’ (chracoal-filtered) air (CFA, □) or CFA plus a trace level of ozone (50 ppb, ●). Values represent mean (±SE) for 3-4 replicate fruit.

Alternaria alternata [3] = assay: Spore production and viability on wound-inoculated tomato fruit; assay type: in vivo; details: for Spore prod.: 50 ppb O3, tomato fruit, 13° C., 95% RH, after 9-12 d
Protocol: (§1) Fruit were wound-inoculated with a suspension containing c. 25×10^3 spores of Botrytis, Alternaria or Colletotrichum, then incubated in clean air or in an atmosphere containing a trace level of ozone (50 ppb) at 13° C., 95% RH. After 9-12 d, spores were washed from inoculated fruit, counts made on a haemocytometer and recovered spore aliquots inoculated onto agar. In vitro spore germination was monitored following 72 h incubation in ‘clean air’ or ‘clean air’ plus a trace level of ozone.

Botrytis cinerea [4] = assay: as above; assay type: in vivo; details: for Spore germ.: 50 ppb O3, recovered spores on agar, 72 h incubation; for Spore prod.: 50 ppb O3, tomato fruit, 13° C., 95% RH, after 9-12 d
Protocol: as §1

Colletotrichum coccodes = assay: as above; assay type: in vivo; details: for Spore germ.: 50 ppb O3, recovered spores on agar, 72 h incubation; for Spore prod.: 50 ppb O3, tomato fruit, 13° C., 95% RH, after 9-12 d
Protocol: as §1

Botrytis cinerea [5] = assay: Spore production on wound-inoculated easi-peel citrus, grapes and plums; assay type: in vivo; details: 100 ppb ozone, 13° C., 95% RH, grapes, plums
Protocol: Fruit were wound-inoculated with spore suspensions of Botrytis cinerea, then incubated in either clean air or an atmosphere containing a trace level of ozone (100 ppb) at 13° C. and 95% RH.
FIG. 4. Impact of a trace level of ozone enrichment (solid bars) on the development of Botrytis cinerea (based on spore counts) on easi-peel citrus, grapes & plums Fruit were wound-inoculated with spore suspensions containing 10^3 (‘low’ inoculum concentration), 10^5 (‘medium’ inoculum concentration) or 10^7 (‘high’ inoculum concentration) Botrytis cinerea, then incubated in clean air or an atmosphere containing a trace level of ozone (100 ppb) at 13° C. and 95% RH, After 8-12 d, spores were washed from inoculated fruit, counts made on a haemocytometer and aliquots incubated on agar. Control fruit were maintained in ‘clean air’ (cross-hatch bars).
Plates 2a & 2b. Impact of a trace level of ozone enrichment on the development of Botrytis cinerea on easi-peel citrus and plums. Fruit were wound-inoculated with/in spore suspensions containing 10^3 (‘low’ inoculum concentration), 10^5 (‘medium’ inoculum concentration) or 10^7 (‘high’ inoculum concentration) Botrytis cinerea, then incubated in clean air or an atmosphere containing a trace level of ozone (100 ppb) at 13° C. and 95% RR Control fruit were maintained in ‘clean air’.

[6] = tested on: silver scurf (Helminthosporium solani); assay: Silver scurf development on stored potato tubers (spore counts, lesion area); assay type: in vivo; details: for Lesion development (%): potato tubers; for Spores/ml: potato tubers cv. Estima, 3.5° C. then 13° C.
Protocol: Tubers […] were washed and selected for similar levels of silver scurf (Helminthosporium solani) infection. Prior to storage, tubers were sprayed with water in order to simulate a condensation event to promote the development of the disease. Tubers were then placed in chambers maintained at 3.5° C.±0.5° C., >95% RH) ventilated with either 'clean air' (charcoal-filtered air'; CFA) or 'clean air' plus a trace level of ozone (200 ppb). After four weeks, half the tubers were removed, then the temperature raised to 13±0.5° C. […] A spore count was calculated for each tuber (n=10) using a haemocytometer. Additionally, the initial and final surface area covered in silver scurf lesions was measured using a […] devices image analyser. Taking into account shrinkage of the potato over the storage period, the percentage of each tuber covered in silver scurf was calculated.

[7] = tested on: targeted fungal pathogens; assay: Colony development of fungal pathogens in vitro; assay type: cell-based; details: ozone concentrations upto 5.0 ppm
From the text: This implies that the observed suppression of spoilage organisms by ozone results from molecular/biochemical changes in the treated produce per se—presumably through subtle shifts in the manner in which plant tissue responds to challenge by pathogens (see FIG. 7).

Botrytis cinerea [8] = assay: Vaccination: tomato fruit exposed to ozone before wound-inoculation with grey mould; assay type: in vivo
Protocol: Tomato fruit were incubated for varying periods in ‘clean’ air or an atmosphere enriched with a trace level of ozone (50 ppb), then wound-inoculated with a mycelial plug of grey mould (Botrytis cinerea). Two experimental designs were adopted for the investigation of ‘memory’ effects induced by ozone:
(§2) (a) Fruit were incubated in clean air prior to transfer to an atmosphere containing a trace level of ozone in such a manner that fruit were wound-inoculated with the pathogen at the same physiological age. For gene expression studies, RNA was extracted from fruit snap-frozen in liquid nitrogen 24 h after wounding/inoculation, immediately following exposure to ‘clean air’ or ozone, and after 1 or 2 weeks' storage in ‘clean air’
Or, (b) Fruit were incubated in clean air or ozone and wound-inoculated with Botrytis cincerea either (i) immediately following the period of exposure, (ii) following 1 weeks' incubation in ‘clean air’ or (iii) following 2 weeks' incubation in ‘clean air’
FIG. 5. Experimental designs to test whether exposure to a trace level of ozone vaccinates produce against subsequent infection. Tomato fruit were maintained in charcoal filtered air (CPA, →) or ozone (→) prior to wound-inoculation (↓) with grey mould (Botrytis cinerea). […] Lesion development was monitored during storage in clean air, over a 7-d incubation period. […]

[9] = tested on: Aco1, Aos, Chit3α, Chit9b, Glucac, Glucbs, Hpl; assay: Gene expression (RT-PCR) in tomato fruit induced by wounding/pathogen; assay type: in vivo, Lycopersicon esculentum L.; details: 50 ppb ozone
Protocol: as §2
Shifts in gene expression patterns were therefore consistent with the observed effects of trace ozone-enrichment on the development of a variety of fungal pathogens.
FIG. 7. Ozone-induced suppression of gene expression (probed by RT-PCR) induced by wounding/pathogen. Aco1 (aminocyclopropancarboxylic acid oxidase) and Aos (allene-oxide synthase) govern the production of ethylene and jasmonate, respectively. These are key signalling molecules. Chit3a (chi3 type chitinase acidic), Chit9b (chi9-type chitinase basic), Glucac (β-1-3 glucanase acidic), Glucbs (β-1-3 glucanase basic), and Hpl hydroperoxide lyase) are all involved with defence against pathogens and other stresses. Gapdh was used as the control gene. Measurements made on tomato fruit (Lycopersicon esculentum L.) incubated throughout in controlled environment chambers maintained at 13° C. and 95% RH and ventilated with clean air or 50 ppb ozone. FIG. 7a, immediate; FIG. 7b, 1 week; FIG. 7c 2 weeks.

[10] = 200 ppb ozone weeks 1-4, NFA weeks 5-8
[11] = 200 ppb ozone weeks 1-4 and weeks 5-8

SMILES: O=[O+][O-] [ozone]
- Grey mould lesion development (Botrytis cinerea [1]): dramatically suppressed
- Suppression of black spot development (Alternaria alternata [2]): more than 50%
- Spore germ. (Alternaria alternata [3]; 50 ppb O3, recovered spores on agar, 72 h incubation): 99.86 ± 0.137
- Spore prod. (Alternaria alternata [3]): dramatically reduced
- Spore prod. (Alternaria alternata [3]; listed as O3): 5.83 ± 0.645
- Spore germ. (Botrytis cinerea [4]): significantly reduced
- Spore germ. (Botrytis cinerea [4]; listed as O3): 96.76 ± 0.613
- Spore prod. (Botrytis cinerea [4]): dramatically reduced
- Spore prod. (Botrytis cinerea [4]; listed as O3): 7.50 ± 1.510
- Spore germ. (Colletotrichum coccodes): significantly reduced
- Spore germ. (Colletotrichum coccodes; listed as O3): 52.50 ± 4.550
- Spore prod. (Colletotrichum coccodes): dramatically reduced
- Spore prod. (Colletotrichum coccodes; listed as O3): 2.44 ± 0.526
- Development of the pathogen (based on spore production) (Botrytis cinerea [5]): dramatically reduced
- Lesion development (%) [6, 10]: 21.34 a %
- Spores/ml [6, 10]: 3.9 × 10^6 c Spores/ml
- Lesion development (%) [6, 11]: 12.81 b %
- Spores/ml [6, 11]: 1.7 × 10^6 b Spores/ml
- Direct effects on colony development in vitro [7]: No direct effects
- Persistence of vaccination effect after removal from ozone (Botrytis cinerea [8]; tomato fruit transferred to clean air): persisted for up to two weeks
- Pathogen development after prior exposure to ozone (Botrytis cinerea [8]; trace level of ozone (50 ppb), even 2-8 h, before inoculation, tomato fruit): marked suppression
- Persistence of gene expression effects after transfer to clean air [9]: persisted for upto two weeks
- Expression of signal-transduction and defence genes ([9]; 13° C., 95% RH): decline
